Here are results for three molecules from US11464864B2, “Drug-bound compound and use thereof” (priority 2018, dated 2022).

pIC50: −log10 of the molar value. Where two headings read alike, the source gives them in different places.

Usually pIC50 stands for −log10 of the IC50, conventionally taken in molar units.

For one test, the system named is SW480 cells. The test can be described thus: Measurement of cytotoxicity, MTT assay. The conditions noted are these: Homo sapiens, 48 hours incubation, read-out: IC50 (cell viability, MTT). It counts as cell-based. As to the method:
(§1) High glucose Dulbecco's modified Eagle's medium (DMEM), Roswell Park Memorial Institute (RPMI) 1640, Dulbecco's phosphate buffered saline, pH 7.4 (DPBS), fetal bovine serum (FBS), and trypsin/EDTA were obtained from Gibco™ and Thermo Fischer Scientific. Mitotracker and Lysotracker were obtained from Invitrogen Inc. (USA). 3-(4,5-Dimethyl-2-thiazolyl)-2,5-diphenyl-2H-tetrazolium bromide (MTT) was purchased from Sigma-Aldrich Korea Ltd. All solutions were prepared using Milli-Q purified water […]. HeLa cells were cultured in 10% (v/v) FBS containing DMEM and penicillin at 37° C. under a wet 5% CO2 environment. For SW480 cells and HT-29 cells, RMPI 1640 medium was used.
(§2) SW480 cells and HT-29 cells (4.5×10^3 cells per well) were seeded in a 96-well plate. After 24 hours, the medium was replaced with serum-free RMPT 1640. […] The treated cells were incubated for 48 hours, washed with cold PBS, and then exposed to MTT in the medium for 4 hours. The medium was replaced with DMSO, and the dissolved formazan dye was quantified by measuring the absorbance at 500 nm. Non-treated cells were measured in the same manner as a control.
On the technique in general: Tetrazolium dyes change colour on reduction, which living cells bring about.

Another test deals with HT-29 cells. Kind of test: Measurement of cytotoxicity, MTT assay. In kind it is cell-based. The conditions noted are these: Homo sapiens, 48 hours incubation, read-out: IC50 (cell viability, MTT). As to the method: as §1, §2
The test system of test [1] is HeLa cells. The test can be described thus: Identification of cell uptake by confocal microscopy. It counts as cell-based. The conditions noted are these: 10 µM compound, serum-free DMEM, 37° C., 30 minutes. As to the method: as §1
(§3) HeLa cells (1×10^5 cells per well) were seeded in a 35 mm cover glass bottom dish (SPL Life Sciences Co., Ltd., Korea) and incubated for 24 hours. […] After incubation at 37° C. for 30 minutes, the cells were washed three times with cold PBS to remove non-internalized samples. Live HeLa cells were examined with a confocal laser scanning microscope (Olympus Fluoview FV1000) equipped with an oil immersion lens (NA 1.30, 40×). […] Each analysis was repeated three times.

The subject of test [2] is HeLa cells. As to the method:
as §3

For `CC[C@@]1(O)C(=O)OCc2c1cc1n(c2=O)Cc2cc3ccccc3nc2-1` [CPT, Camptothecin], the pIC50 in the test on SW480 cells was 5.82; with HT-29 cells, 6.00.

As for “1-O-[20-O—(N-succinyl-6-aminohexanoyl)camptothecin]-2,3,4,5-tetra-O—(N-{bis-[3-N′,N″-bis-(tert-butoxycarbonyl)-guanidino)-propyl]}-6-aminohexanoyl)-6-O-[6-(fluoresceinyl-5-thioureido)-hexanoyl]-D-sorbitol⋅8HCl [compound (10)]”, the “Cell uptake (intracellular FITC fluorescence in live cells)” value in the test on HeLa cells [1] is on record as “strong green fluorescence appears mainly in the cytoplasm”. The Intracellular localization result in the test with HeLa cells [2] (HeLa cells, 10 μM) is reported as “intracellular localization for mitochondria”; with HeLa cells [2] (HeLa cells, 20 μM, incubated 30 minutes), “fluorescence exists even inside the nucleus”. In addition, the “Co-localization with Lysotracker (lysosomal marker)” value in the test on HeLa cells [2] (HeLa cells, Lysotracker 200 nM) was “co-localization was not observed”. The “Co-localization with Mitotracker (mitochondrial marker)” value with HeLa cells [2] (live HeLa cells, 10 uM for 30 minutes, then Mitotracker 100 nM for 30 minutes) is “Co-localization was markedly observed”.

Consider “20-O-[6-(fluoresceinyl-5-thioureido)-hexanoyl)camptothecin [compound (4)]”, for which, in the test on HeLa cells [1], the “Cell uptake (intracellular FITC fluorescence in live cells)” value is listed as “intracellular fluorescence was not observed”.
